Like-named read-outs stand apart in the source and are kept apart here.
Assays:
[1] = tested on: spermidine/spermine acetyltransferase (SSAT); test: SSAT activity in treated L1210 cells; assay type: cell-based, murine; details: L1210, 10 μM at 48 hours (triamine analogues)
From the text: Spermidine/spermine N^1-acetyltransferase activity was based on quantitation of [^14C]-N^1-acetylspermidine formed by acetylation of SPD with [^14C] acetyl coenzyme A according to the method of Libby et al [Biochem. Pharmacol., Vol. 38, supra]. Cells treated with DENSPM were positive controls.

[2] = tested on: ornithine decarboxylase (ODC); test: ODC activity in treated L1210 cells; assay type: cell-based, murine; details: L1210, 1 μM at 4 hours
Procedure, shortened: (§1)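 L1210 cells treated with triamines; ODC activity measured at 4 h and AdoMetDC at 6 h as ^14CO2 released from [^14C]-carboxyl-labeled L-ornithine (ODC) or S-adenosyl-L-methionine (AdoMetDC). Untreated cells served as controls and DEHSPM-treated cells as positive controls.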

L1210 cells [3] = test: Polyamine pool analysis in L1210 cells; assay type: cell-based, murine; details: Mus musculus, L1210, 48 h, % of untreated control
Procedure, shortened: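 Cells were exposed to each analogue for 48 h at two concentrations. Washed pellets were extracted with 0.6 N HClO4 (1 ml/10^7 cells), and polyamines were quantified by HPLC of dansyl derivatives.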

L1210 cells [4] = test: L1210 growth inhibition, IC50 determination; assay type: cell-based, murine; details: Mus musculus
Protocol: Murine L1210 leukemia cells (ATCC CCL 219) were maintained in logarithmic growth in RPMI-1640 medium containing 10% fetal calf serum or a semi-synthetic equivalent, NuSerum, 2% HEPES-MOPS buffer and 1 mM aminoguanidine.

[5] = tested on: polyamine transport apparatus; test: Competitive uptake determination: inhibition of [3H]spermidine transport into L1210 cells; assay type: cell-based, murine; details: analogue inhibition of spermidine transport
Procedure, shortened: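 Analogues competed with [3H]spermidine for uptake into L1210 cells. Values are Ki, derived from Lineweaver–Burk analysis as competitive inhibition with respect to spermidine.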

[6] = tested on: S-adenosylmethionine decarboxylase (AdoMetDC); test: AdoMetDC activity in treated L1210 cells; assay type: cell-based, murine; details: L1210, 1 μM at 6 hours
Procedure, shortened: as §1

laboratory animals = details: early studies in laboratory animals; cited from earlier work

IC50 (L1210 cells [4]; L1210, 48 h, L1210, 48 hour exposure, read-out: IC50 48 hour): > 100 µM | IC50 (L1210 cells [4]; L1210, 96 h, L1210, 96 hour exposure, read-out: IC50 96 hour): > 100 µM
Structure (SMILES): NCCCCNCCCN [SPD, spermidine]
SSAT activity, percent of untreated control [1]: 160% of untreated control | ODC activity, percent of untreated control [2]: 16% of untreated control | activity at 100 µM (L1210 cells [3]; read-out: Put): 0% | activity at 100 µM (L1210 cells [3]; read-out: Spd): 117% | activity at 100 µM (L1210 cells [3]; read-out: Spm): 118% | activity at 500 µM (L1210 cells [3]; read-out: Put): 0% | activity at 500 µM (L1210 cells [3]; read-out: Spd): 145% | activity at 500 µM (L1210 cells [3]; read-out: Spm): 108% | Ki [5]: 2.2 µM | AdoMetDC activity, percent of untreated control [6]: 43% of untreated control | Nephrotoxicity relative to spermine (laboratory animals): approximately one-twentieth as nephrotoxic as spermine

— patent US20020045780A1, “Biologically active spermidine analogues, pharmaceutical compositions and methods of treatment” (priority 1997, published 2002)
